Assays:
[1] = biological target: T1, Protocollagen prolyl hydroxylase (Gallus gallus, UniProt P16924); experiment: Protocollagen prolyl hydroxylase inhibiting activity (method of R. E. Rhoads, substrate (Pro-Pro-Gly)5.4H2O); type: biochemical, chick embryo; details: 3.13 μM compound, 20 μg enzyme
T1 construct: partially purified enzyme preparation derived from chick embryo; from tissue; host or cells: chick embryo (partially purified enzyme preparation)
T1 sequence (P16924 1-516): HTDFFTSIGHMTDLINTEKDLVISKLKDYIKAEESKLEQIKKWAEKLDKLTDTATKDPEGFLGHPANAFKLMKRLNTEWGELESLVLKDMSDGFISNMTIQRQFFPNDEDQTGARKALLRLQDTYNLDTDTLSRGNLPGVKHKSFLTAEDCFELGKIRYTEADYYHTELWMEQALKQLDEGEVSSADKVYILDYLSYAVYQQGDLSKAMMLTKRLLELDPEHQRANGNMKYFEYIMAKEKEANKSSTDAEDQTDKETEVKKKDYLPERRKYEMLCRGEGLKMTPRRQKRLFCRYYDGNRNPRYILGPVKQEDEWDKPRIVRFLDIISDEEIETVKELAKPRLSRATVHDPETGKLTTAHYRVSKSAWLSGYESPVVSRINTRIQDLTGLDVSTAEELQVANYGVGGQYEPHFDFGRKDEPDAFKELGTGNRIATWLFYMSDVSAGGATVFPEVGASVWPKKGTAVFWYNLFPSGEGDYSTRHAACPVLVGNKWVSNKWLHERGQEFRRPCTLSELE
T1 sequence (P09102 23-515 partner): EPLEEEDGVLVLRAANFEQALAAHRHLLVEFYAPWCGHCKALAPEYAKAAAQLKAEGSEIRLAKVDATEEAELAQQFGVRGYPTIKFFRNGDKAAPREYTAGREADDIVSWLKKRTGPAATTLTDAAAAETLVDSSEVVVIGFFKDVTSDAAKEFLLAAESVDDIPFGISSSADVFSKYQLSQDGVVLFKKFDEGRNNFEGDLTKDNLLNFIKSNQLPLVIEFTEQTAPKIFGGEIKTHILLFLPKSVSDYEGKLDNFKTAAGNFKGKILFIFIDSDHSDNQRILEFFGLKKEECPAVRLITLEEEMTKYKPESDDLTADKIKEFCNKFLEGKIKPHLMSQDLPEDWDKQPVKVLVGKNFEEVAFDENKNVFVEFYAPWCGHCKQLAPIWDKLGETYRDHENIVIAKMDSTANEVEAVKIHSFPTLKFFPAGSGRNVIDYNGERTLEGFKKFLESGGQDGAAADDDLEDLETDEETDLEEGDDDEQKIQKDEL

[2] = biological target: T1, Protocollagen prolyl hydroxylase; experiment: as above; type: biochemical, chick embryo; details: for inhibition at 12.5 µM: 12.5 μM compound, 100 μg enzyme; for IC50: 100 μg (as protein) of partially purified enzyme preparation from chick embryo, read-out: Concentration of P-23924 required for a 50% inhibition
Experimental: (a) Protocollagen prolyl hydroxylase inhibiting activity: This inhibitory activity was assayed by the method of R. E. Rhoads [Methods in Enzymology XVII B, 306 (1971)] using a partially purified enzyme preparation derived from chick embryo in accordance with the methods of K. I. Kivirriko et al and J. Halme et al. [Journal of Biological Chemistry 242, 4007 (1967) and Biochimica et Biophysica Acta 198, 460 (1967)] and, as the substrate, (Pro-Pro-Gly)5.4H2 O [manufactured by Tanpakushitsu Kenkyu Shoreikai (Protein Research Foundation Society), Osaka, Japan]. The concentrations of P-23924 required for a 50% inhibition of 100 μg (as protein) of said partially purified enzyme preparation were as follows.
On the other hand, by a similar procedure as above, the protocollagen prolyl hydroxylase inhibiting activities on the compounds of P-23924 AR, BR, CR and DR are measured.

[3] = Solubility; type: physicochemical
[4] = Acute toxicity [LD50] by the intraperitoneal route; details: rat, in vivo, ip, rats
Text: The acute toxicity [LD50 ] values of P-23924 in rats by the intraperitoneal route are given below.

[5] = Description (acidity, fat solubility); type: physicochemical
[6] = tested on: collagen biosynthesis (uterus); experiment: Collagen biosynthesis suppressant activity in uterus of estradiol-17β treated rats (method of T. Ishimaru et al); type: in vivo, SD rats; details: for Body weight of rats / Collagen content of uterus / Total protein content of uterus: groups of 10; for % Inhibition: Non-collagenous protein: total protein content - collagen
Text: (b) Collagen biosynthesis suppressant activity: In accordance with the method of T. Ishimaru et al [Biochemical Pharmacology 31, 915 (1982)], P-23924 was intraperitoneally administered to SD rats (females, 3 weeks old) once daily for 6 consecutive days and the collagen content and non-collagenous protein content of the uterus were compared with those of control animals. […] I | said tests, rats were used in groups of 10 individuals.

[7] = in dimethylsulfoxide, pyridine, ethyl acetate, chloroform, dioxan
[8] = 1 mg/kg i.p. once daily 6 days + Estradiol-17β (5 μg), P < 0.05 (B: P < 0.02, C: P < 0.01)
[9] = 1 mg/kg i.p. once daily 6 days + Estradiol-17β (5 μg)
[10] = in acetone, chloroform, n-hexane and petroleum ether
[11] = in dimethyl sulfoxide, dimethylformamide, pyridine and 5% aqueous sodium hydrogen carbonate
[12] = in methanol, dioxane and acetic acid
[13] = in chloroform, n-hexane and petroleum ether
[14] = 50 mg/kg i.p. once daily 6 days + Estradiol-17β (5 μg)

Row | inhibition at 3.13 µM [1] | inhibition at 12.5 µM [2] | Solubility [3, 7] | Solubility ([3]; in n-hexane, petroleum ether) | Compound | Solubility ([3]; in water) | LD50 [4] | Description [5] | % Inhibition: Collagen [6, 8] | Body weight of rats [6, 9] | Collagen content of uterus [6, 9] | Total protein content of uterus [6, 9] | % Inhibition: Non-collagenous protein [6, 9] | IC50 [2] | Solubility [3, 10] | Solubility [3, 11] | Solubility [3, 12] | also measured
1 | 37% | 26% | readily or easily soluble | slightly soluble or insoluble | COc1cc2c(c(O)c1C)C(=O)C(C)=CC2=O [P-23924 AR] | slightly soluble or insoluble |  |  |  |  |  |  |  |  |  |  |  | 
2 | 26% | 22% | readily or easily soluble | slightly soluble or insoluble | COC1=C(C)C(=O)c2c(cc(OC)c(C)c2O)C1=O [P-23924 BR] | slightly soluble or insoluble |  |  |  |  |  |  |  |  |  |  |  | 
3 | 40% | 33% | readily or easily soluble | slightly soluble or insoluble | COC1=CC(=O)c2c(cc(OC)c(C)c2O)C1=O [P-23924 CR] | slightly soluble or insoluble |  |  |  |  |  |  |  |  |  |  |  | 
4 | 33% | 20% | readily or easily soluble | slightly soluble or insoluble | COC1=C(C)C(=O)c2c(cc(O)c(C)c2O)C1=O [P-23924 DR] | slightly soluble or insoluble |  |  |  |  |  |  |  |  |  |  |  | 
5 |  |  |  |  | COc1cc2c(c(O)c1CSCC(NC(C)=O)C(=O)O)C(=O)C(C)=CC2=O (stereo not shown) [P-23924A] | slightly soluble or insoluble | 100 to 200 mg/kg | acidic and fat-soluble | 33% | 73 ± 3 g | 2.53 ± 0.35 mg | 15.67 ± 1.63 mg | 10% | 67 µM | slightly soluble or insoluble | easily soluble | soluble | 
6 |  |  |  |  | COC1=C(C)C(=O)c2c(cc(OC)c(CSCC(NC(C)=O)C(=O)O)c2O)C1=O (stereo not shown) [P-23924B] | slightly soluble or insoluble | 50 to 100 mg/kg | acidic and fat-soluble | 46% | 70 ± 5 g | 2.37 ± 0.43 mg |  | 19% | 95 µM | slightly soluble or insoluble | easily soluble | soluble | 
7 |  |  |  |  | COC1=CC(=O)c2c(cc(OC)c(CSCC(NC(C)=O)C(=O)O)c2O)C1=O (stereo not shown) [P-23924C] | slightly soluble or insoluble | 100 to 200 mg/kg | acidic and fat-soluble | 61% | 73 ± 6 g | 2.19 ± 0.49 mg | 14.01 ± 1.51 mg | 30% | 57 µM |  | easily soluble |  | Solubility [3, 13]: slightly soluble or insoluble; Solubility ([3]; in methanol, dioxane, acetone and acetic acid): soluble
8 |  |  |  |  | COC1=C(C)C(=O)c2c(cc(O)c(CSCC(NC(C)=O)C(=O)O)c2O)C1=O (stereo not shown) [P-23924D] | slightly soluble or insoluble | > 400 mg/kg | acidic and fat-soluble |  |  |  |  |  | 270 µM | slightly soluble or insoluble | easily soluble | soluble | % Inhibition: Collagen ([6]; 50 mg/kg i.p. once daily 6 days + Estradiol-17β (5 μg), P < 0.05): 32%; Body weight of rats [6, 14]: 72 ± 3 g; Collagen content of uterus [6, 14]: 2.55 ± 0.30 mg; Total protein content of uterus [6, 14]: 15.63 ± 1.43 mg; % Inhibition: Non-collagenous protein [6, 14]: 11%
9 |  |  |  |  | COc1cc2c(c(O)c1CSCC(NC(C)=O)C(=O)O)C(=O)C(CO)=CC2=O (stereo not shown) [P-23924E] | slightly soluble or insoluble | ~50 mg/kg | acidic and fat-soluble | 34% | 72 ± 4 g | 2.52 ± 0.36 mg | 15.73 ± 1.59 mg | 9% | 21 µM |  |  |  | Solubility [3, 13]: slightly soluble or insoluble; Solubility ([3]; in dimethyl sulfoxide, dimethylformamide, pyridine, 5% aqueous sodium hydrogen carbonate and methanol): easily soluble; Solubility ([3]; in dioxane and acetic acid): soluble
10 |  |  |  |  | COC1=C(CO)C(=O)c2c(cc(OC)c(CSCC(NC(C)=O)C(=O)O)c2O)C1=O (stereo not shown) [P-23924F] | slightly soluble or insoluble | 50 to 100 mg/kg | acidic and fat-soluble | 38% | 71 ± 3 g | 2.47 ± 0.57 mg | 15.20 ± 1.53 mg | 15% | 21 µM | slightly soluble or insoluble | easily soluble | soluble | 
